Measured values as given in ChEMBL document CHEMBL1201862, “PubChem BioAssay data set” (2004).
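Where inhibition never reached the appropriate level, the endpoint shown equals the highest concentration tested. Otherwise, values were interpolated linearly from a five-concentration, 48-hour dose response in 96-well plates. GI50 = concentration required for 50% inhibition of growth.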 The source made the active and inactive calls. Cut-off read from the data, not from the text of the source: active = GI50 up to about 1.1 µM and inactive = higher.

What was measured:
Assay in all cases: NCI tumour cell line growth inhibition, 48 h
NCI-H460 = tested on: NCI-H460
KM12 = tested on: KM12
CAKI-1 = tested on: CAKI-1
SF-268 = tested on: SF-268
SF-295 = tested on: SF-295
SK-MEL-28 = tested on: SK-MEL-28
HCT-116 = tested on: HCT-116
NCI-H522 = tested on: NCI-H522
RXF 393 = tested on: RXF 393
DU-145 = tested on: DU-145
HT-29 = tested on: HT-29
LOX IMVI = tested on: LOX IMVI
UACC-257 = tested on: UACC-257
MDA-MB-231 = tested on: MDA-MB-231
ACHN = tested on: ACHN
U-251 = tested on: U-251
PC-3 = tested on: PC-3
SNB-75 = tested on: SNB-75
A549 = tested on: A549
UO-31 = tested on: UO-31
MOLT-4 = tested on: MOLT-4
M14 = tested on: M14
HCC 2998 = tested on: HCC 2998
A498 = tested on: A498
SW-620 = tested on: SW-620
HOP-92 = tested on: HOP-92
IGROV-1 = tested on: IGROV-1
K562 = tested on: K562
EKVX = tested on: EKVX
COLO 205 = tested on: COLO 205
HOP-62 = tested on: HOP-62
SK-OV-3 = tested on: SK-OV-3
MDA-N = tested on: MDA-N
OVCAR-3 = tested on: OVCAR-3
NCI-H23 = tested on: NCI-H23
SF-539 = tested on: SF-539
SN12C = tested on: SN12C
HCT-15 = tested on: HCT-15
OVCAR-5 = tested on: OVCAR-5
RPMI-8226 = tested on: RPMI-8226
SR = tested on: SR
786-0 = tested on: 786-0
SK-MEL-5 = tested on: SK-MEL-5
Hs-578T = tested on: Hs-578T
Malme-3M = tested on: Malme-3M
MDA-MB-435 = tested on: MDA-MB-435
UACC-62 = tested on: UACC-62
TK-10 = tested on: TK-10
SNB-19 = tested on: SNB-19
T47D = tested on: T47D
SK-MEL-2 = tested on: SK-MEL-2
OVCAR-4 = tested on: OVCAR-4
MCF7 = tested on: MCF7
NCI-H226 = tested on: NCI-H226
BT-549 = tested on: BT-549
NCI/ADR-RES = tested on: NCI/ADR-RES
OVCAR-8 = tested on: OVCAR-8

Structure (SMILES): Cc1ccc(Nc2nnc(-c3ccc4c(c3)OCO4)o2)c(C)c1
- GI50 (NCI-H460): > 100 µM (inactive)
- GI50 (KM12): > 100 µM (inactive)
- GI50 (CAKI-1): > 100 µM (inactive)
- GI50 (SF-268): 64.4 µM (inactive)
- GI50 (SF-295): > 100 µM (inactive)
- GI50 (SK-MEL-28): > 100 µM (inactive)
- GI50 (HCT-116): > 100 µM (inactive)
- GI50 (NCI-H522): 30.5 µM (inactive)
- GI50 (RXF 393): > 100 µM (inactive)
- GI50 (DU-145): > 100 µM (inactive)
- GI50 (HT-29): > 100 µM (inactive)
- GI50 (LOX IMVI): > 100 µM (inactive)
- GI50 (UACC-257): > 100 µM (inactive)
- GI50 (MDA-MB-231): 62.2 µM (inactive)
- GI50 (ACHN): > 100 µM (inactive)
- GI50 (U-251): 39.2 µM (inactive)
- GI50 (PC-3): 50.1 µM (inactive)
- GI50 (SNB-75): > 100 µM (inactive)
- GI50 (A549): > 100 µM (inactive)
- GI50 (UO-31): > 100 µM (inactive)
- GI50 (MOLT-4): 1.71 µM (inactive)
- GI50 (M14): > 100 µM (inactive)
- GI50 (HCC 2998): > 100 µM (inactive)
- GI50 (A498): 39.6 µM (inactive)
- GI50 (SW-620): > 100 µM (inactive)
- GI50 (HOP-92): 41.9 µM (inactive)
- GI50 (IGROV-1): > 100 µM (inactive)
- GI50 (K562): > 100 µM (inactive)
- GI50 (EKVX): 82 µM (inactive)
- GI50 (COLO 205): > 100 µM (inactive)
- GI50 (HOP-62): > 100 µM (inactive)
- GI50 (SK-OV-3): > 100 µM (inactive)
- GI50 (MDA-N): > 100 µM (inactive)
- GI50 (OVCAR-3): > 100 µM (inactive)
- GI50 (NCI-H23): > 100 µM (inactive)
- GI50 (SF-539): 64.6 µM (inactive)
- GI50 (SN12C): > 100 µM (inactive)
- GI50 (HCT-15): > 100 µM
- GI50 (OVCAR-5): > 100 µM (inactive)
- GI50 (RPMI-8226): 54 µM (inactive)
- GI50 (SR): 31.1 µM (inactive)
- GI50 (786-0): 41.4 µM (inactive)
- GI50 (SK-MEL-5): > 100 µM (inactive)
- GI50 (Hs-578T): > 100 µM (inactive)
- GI50 (Malme-3M): > 100 µM (inactive)
- GI50 (MDA-MB-435): > 100 µM (inactive)
- GI50 (UACC-62): 32.8 µM (inactive)
- GI50 (TK-10): > 100 µM (inactive)
- GI50 (SNB-19): 40.2 µM (inactive)
- GI50 (T47D): 36.2 µM (inactive)
- GI50 (SK-MEL-2): > 100 µM (inactive)
- GI50 (OVCAR-4): > 100 µM (inactive)
- GI50 (MCF7): 38.8 µM (inactive)
- GI50 (NCI-H226): > 100 µM (inactive)
- GI50 (BT-549): > 100 µM (inactive)
- GI50 (NCI/ADR-RES): > 100 µM (inactive)
- GI50 (OVCAR-8): 55.1 µM (inactive)
